# According to PubChem BioAssay AID1845211 (Molecular Pharmacology Branch, DTP, NCI, 2023):
# Several values for one entry are separate records, joined by “and”; a condition that tells them apart may be missing. Equal entries are not always repeated.
# System: NCI-H322M multicellular tumor spheroids, viability (% test/control)
# Assay: Anticancer human tumor NCI-H322M cell line growth inhibition;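 as to viability, T/C: spheroids exposed to compound for seven days before readout; 100% = DMSO vehicle control wells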
# Details: for viability, T/C: stronger effect = lower value
# How it was run: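 Complex spheroids of malignant cells with endothelial cells and mesenchymal stem cells; agents alone or combined, from near clinical Cmax (or 10 microM if unknown) down in half-log steps, 0.25% DMSO final.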
# [1] = curve of first compound, second compound 30 pM
# [2] = curve of first compound, second compound 94.9 pM
# [3] = curve of first compound, second compound 0.0003 µM
# [4] = curve of first compound, second compound 0.000949 µM
# [5] = curve of first compound, second compound 0.003 µM
structure (smiles),measurement,setting,value
CNCc1ccc(-c2cc(-c3nc(-c4ccc(S(=O)(=O)C(C)C)cc4)cnc3N)on2)cc1 + Cn1nnc2c(C(N)=O)ncn2c1=O,IC50,"curve of first compound, second compound 1 µM",> 3 µM
same,IC50,"curve of first compound, second compound 3.16 µM",> 3 µM
same,IC50,"curve of first compound, second compound 10 µM",> 3 µM
same,IC50,"curve of first compound, second compound 31.6 µM",> 3 µM
same,IC50,"curve of first compound, second compound 100 µM",> 3 µM
same,"viability, T/C","second compound 1 µM, first compound 0.00949 µM",100%
same,"viability, T/C","second compound 1 µM, first compound 0.03 µM",104%
same,"viability, T/C","second compound 1 µM, first compound 0.0949 µM",82.1%
same,"viability, T/C","second compound 1 µM, first compound 0.3 µM",84.1%
same,"viability, T/C","second compound 1 µM, first compound 0.949 µM",75.7%
same,"viability, T/C","second compound 1 µM, first compound 3 µM",83.3%
same,"viability, T/C","second compound 3.16 µM, first compound 0.00949 µM",79.5%
same,"viability, T/C","second compound 3.16 µM, first compound 0.03 µM",76.2%
same,"viability, T/C","second compound 3.16 µM, first compound 0.0949 µM",75%
same,"viability, T/C","second compound 3.16 µM, first compound 0.3 µM",86.9%
same,"viability, T/C","second compound 3.16 µM, first compound 0.949 µM",81.4%
same,"viability, T/C","second compound 3.16 µM, first compound 3 µM",87.6%
same,"viability, T/C","second compound 10 µM, first compound 0.00949 µM",78.7%
same,"viability, T/C","second compound 10 µM, first compound 0.03 µM",89%
same,"viability, T/C","second compound 10 µM, first compound 0.0949 µM",77.6%
same,"viability, T/C","second compound 10 µM, first compound 0.3 µM",99.2%
same,"viability, T/C","second compound 10 µM, first compound 0.949 µM",81.1%
same,"viability, T/C","second compound 10 µM, first compound 3 µM",75.4%
same,"viability, T/C","second compound 31.6 µM, first compound 0.00949 µM",110%
same,"viability, T/C","second compound 31.6 µM, first compound 0.03 µM",76.2%
same,"viability, T/C","second compound 31.6 µM, first compound 0.0949 µM",78.3%
same,"viability, T/C","second compound 31.6 µM, first compound 0.3 µM",76.3%
same,"viability, T/C","second compound 31.6 µM, first compound 0.949 µM",68.4%
same,"viability, T/C","second compound 31.6 µM, first compound 3 µM",66%
same,"viability, T/C","second compound 100 µM, first compound 0.00949 µM",95.6%
same,"viability, T/C","second compound 100 µM, first compound 0.03 µM",87%
same,"viability, T/C","second compound 100 µM, first compound 0.0949 µM",81.7%
same,"viability, T/C","second compound 100 µM, first compound 0.3 µM",71%
same,"viability, T/C","second compound 100 µM, first compound 0.949 µM",70.1%
same,"viability, T/C","second compound 100 µM, first compound 3 µM",58.3%
COc1cc(C)[nH]c(=O)c1CN1CCc2c(Cl)cc(C(OC)C3COC3)c(Cl)c2C1=O (configuration not stated) + COc1cc2c(cc1O)CCNC21CSC2c3c(OC(C)=O)c(C)c4c(c3C(COC1=O)N1C(O)C3Cc5cc(C)c(OC)c(O)c5C(C21)N3C)OCO4,IC50,[1],> 10 µM
same,IC50,[2],> 10 µM
same,IC50,[3],> 10 µM
same,IC50,[4],> 10 µM
same,IC50,[5],< 0.0316 µM
same,"viability, T/C","second compound 30 pM, first compound 0.0316 µM",75.3%
same,"viability, T/C","second compound 30 pM, first compound 0.1 µM",82.3%
same,"viability, T/C","second compound 30 pM, first compound 0.316 µM",80.6%
same,"viability, T/C","second compound 30 pM, first compound 1 µM",84%
same,"viability, T/C","second compound 30 pM, first compound 3.16 µM",84.4%
same,"viability, T/C","second compound 30 pM, first compound 10 µM",91.7%
same,"viability, T/C","second compound 94.9 pM, first compound 0.0316 µM",92.6%
same,"viability, T/C","second compound 94.9 pM, first compound 0.1 µM",77.5%
same,"viability, T/C","second compound 94.9 pM, first compound 0.316 µM",83.3%
same,"viability, T/C","second compound 94.9 pM, first compound 1 µM",81%
same,"viability, T/C","second compound 94.9 pM, first compound 3.16 µM",81.4%
same,"viability, T/C","second compound 94.9 pM, first compound 10 µM",84.1%
same,"viability, T/C","second compound 0.0003 µM, first compound 0.0316 µM",78.7%
same,"viability, T/C","second compound 0.0003 µM, first compound 0.1 µM",94.2%
same,"viability, T/C","second compound 0.0003 µM, first compound 0.316 µM",79%
same,"viability, T/C","second compound 0.0003 µM, first compound 1 µM",83.4%
same,"viability, T/C","second compound 0.0003 µM, first compound 3.16 µM",97.6%
same,"viability, T/C","second compound 0.0003 µM, first compound 10 µM",87.2%
same,"viability, T/C","second compound 0.000949 µM, first compound 0.0316 µM",81.8%
same,"viability, T/C","second compound 0.000949 µM, first compound 0.1 µM",82.2%
same,"viability, T/C","second compound 0.000949 µM, first compound 0.316 µM",82.8%
same,"viability, T/C","second compound 0.000949 µM, first compound 1 µM",78.8%
same,"viability, T/C","second compound 0.000949 µM, first compound 3.16 µM",74.7%
same,"viability, T/C","second compound 0.000949 µM, first compound 10 µM",79.5%
same,"viability, T/C","second compound 0.003 µM, first compound 0.0316 µM",6.18%
same,"viability, T/C","second compound 0.003 µM, first compound 0.1 µM",10.3%
same,"viability, T/C","second compound 0.003 µM, first compound 0.316 µM",6.44%
same,"viability, T/C","second compound 0.003 µM, first compound 1 µM",7.13%
same,"viability, T/C","second compound 0.003 µM, first compound 3.16 µM",4.79%
same,"viability, T/C","second compound 0.003 µM, first compound 10 µM",5.29%
Cc1sc2c(c1C)C(c1ccc(Cl)cc1)=NC(CC(=O)Nc1ccc(O)cc1)c1nnc(C)n1-2 (configuration not stated) + COc1cc2c(cc1O)CCNC21CSC2c3c(OC(C)=O)c(C)c4c(c3C(COC1=O)N1C(O)C3Cc5cc(C)c(OC)c(O)c5C(C21)N3C)OCO4,IC50,[1],> 3 µM
same,IC50,[2],> 3 µM
same,IC50,[3],1.59 µM
same,IC50,[4],0.333 µM
same,IC50,[5],< 0.00949 µM
same,"viability, T/C","second compound 30 pM, first compound 0.00949 µM",113%
same,"viability, T/C","second compound 30 pM, first compound 0.03 µM",118%
same,"viability, T/C","second compound 30 pM, first compound 0.0949 µM",136%
same,"viability, T/C","second compound 30 pM, first compound 0.3 µM",112%
same,"viability, T/C","second compound 30 pM, first compound 0.949 µM",74%
same,"viability, T/C","second compound 30 pM, first compound 3 µM",60.1%
same,"viability, T/C","second compound 94.9 pM, first compound 0.00949 µM",104%
same,"viability, T/C","second compound 94.9 pM, first compound 0.03 µM",112%
same,"viability, T/C","second compound 94.9 pM, first compound 0.0949 µM",123%
same,"viability, T/C","second compound 94.9 pM, first compound 0.3 µM",110%
same,"viability, T/C","second compound 94.9 pM, first compound 0.949 µM",72.5%
same,"viability, T/C","second compound 94.9 pM, first compound 3 µM",53.6%
same,"viability, T/C","second compound 0.0003 µM, first compound 0.00949 µM",117%
same,"viability, T/C","second compound 0.0003 µM, first compound 0.03 µM",133%
same,"viability, T/C","second compound 0.0003 µM, first compound 0.0949 µM",133%
same,"viability, T/C","second compound 0.0003 µM, first compound 0.3 µM",119%
same,"viability, T/C","second compound 0.0003 µM, first compound 0.949 µM",63.9%
same,"viability, T/C","second compound 0.0003 µM, first compound 3 µM",33.1%
same,"viability, T/C","second compound 0.000949 µM, first compound 0.00949 µM",127%
same,"viability, T/C","second compound 0.000949 µM, first compound 0.03 µM",87.6%
same,"viability, T/C","second compound 0.000949 µM, first compound 0.0949 µM",80.7%
same,"viability, T/C","second compound 0.000949 µM, first compound 0.3 µM",60.2%
same,"viability, T/C","second compound 0.000949 µM, first compound 0.949 µM",19.5%
same,"viability, T/C","second compound 0.000949 µM, first compound 3 µM",11.9%
same,"viability, T/C","second compound 0.003 µM, first compound 0.00949 µM",9.9%
same,"viability, T/C","second compound 0.003 µM, first compound 0.03 µM",6.99%
same,"viability, T/C","second compound 0.003 µM, first compound 0.0949 µM",6.13%
same,"viability, T/C","second compound 0.003 µM, first compound 0.3 µM",2.83%
same,"viability, T/C","second compound 0.003 µM, first compound 0.949 µM",1.47%
same,"viability, T/C","second compound 0.003 µM, first compound 3 µM",1.17%
COc1cc(C)[nH]c(=O)c1CN1CCc2c(Cl)cc(C(OC)C3COC3)c(Cl)c2C1=O (configuration not stated),"viability, T/C",compound 0.0316 µM,104% and 96.2% and 98.2%
same,"viability, T/C",compound 0.1 µM,87.7% and 103% and 84%
same,"viability, T/C",compound 0.316 µM,89.9% and 91.7% and 80.2%
same,"viability, T/C",compound 1 µM,74.3% and 84.4% and 89.6%
same,"viability, T/C",compound 3.16 µM,93.3% and 91.8% and 102%
same,"viability, T/C",compound 10 µM,82% and 96.2% and 93.1%
same,IC50,curve of compound,> 10 µM
